Key:
Format in all cases: in vivo
Poa annua = experiment: Screen of short-chain organic acids for effects on roots, agarose medium, seeds inoculated with Pseudomonas strain SLB4; conditions: for Inhibitory Activity On Germination / Inhibitory Activity On Gravitropism / Inhibitory Activity On Hair Length / Inhibitory Activity On Root Length / Inhibitory Activity On Bact. Entry: organic acids 0-1 mM in 0.7% agarose, 7 days; for Inhibitory Activity On Bact. Entry: Pseudomonas strain SLB4
[1] = test system: Phragmites australis plants; experiment: Sodium butyrate applied to roots over a 6-week period; conditions: 10 mM applied to roots over a 6-week period
Poa reptans seedlings = experiment: Seeds germinated on agarose with and without 0.05% arginine
Text: In laboratory experiments, we germinated seeds of the grass Poa reptans on agarose with and without 0.05% arginine.
This is further evidence that exposure of plants to arginine results in excess production of reactive oxygen species (ROS).

| Structure (SMILES) | seedling growth inhibition (Poa annua) | Inhibitory Activity On Germination (Poa annua) | Inhibitory Activity On Gravitropism (Poa annua) | Inhibitory Activity On Hair Length (Poa annua) | Inhibitory Activity On Root Length (Poa annua) | Inhibitory Activity On Bact. Entry (Poa annua) | effects on roots and shoots [1] | chlorophylls in shoot cells (Poa reptans seedlings; 0.05% arginine) | growth of shoots and roots (Poa reptans seedlings; 0.05% arginine in agarose, 7 days) | colonization of chloroplasts by bacteria (Poa reptans seedlings; 0.05% arginine, leaf cells, microscopy) | root hairs (Poa reptans seedlings; arginine-treated seedlings) | hydrogen peroxide around roots (Poa reptans seedlings; diaminobenzidine tetrahydrochloride stain) | superoxide in roots (Poa reptans seedlings; nitro blue tetrazolium staining) |
| --- | --- | --- | --- | --- | --- | --- | --- | --- | --- | --- | --- | --- | --- |
| CCC(=O)O [Propionic, Propionic acid] | seedling growth inhibition occurred | No | Yes | Yes | Yes | Yes |  |  |  |  |  |  |  |
| O=C(O)C(=O)O [Oxalic, Oxalic acid] | seedling growth inhibition occurred | No | Yes | Yes | Yes | Yes |  |  |  |  |  |  |  |
| CCCC(=O)[O-].[Na+] [sodium butyrate] |  |  |  |  |  |  | suppression of root and shoot growth, reduced root branching, root browning, and increased bacterial and fungal growth on roots |  |  |  |  |  |  |
| O=C(O)c1ccccc1 [Benzoic, Benzoic acid] | seedling growth inhibition occurred | No | Yes | Yes | Yes | No |  |  |  |  |  |  |  |
| O=C(O)[C@]1(O)C[C@@H](O)[C@@H](O)[C@H](O)C1 [Quinic, Quinic acid] |  | No | No | No | No | No |  |  |  |  |  |  |  |
| O=C(O)CC(O)(CC(=O)O)C(=O)O [Citric, Citric acid] | seedling growth inhibition occurred | No | Yes | Yes | Yes | No |  |  |  |  |  |  |  |
| CCCC(=O)O [Butyric, Butyric acid] | seedling growth inhibition occurred | No | Yes | Yes | Yes | Yes |  |  |  |  |  |  |  |
| CCCCCC(=O)O [Hexanoic, Hexanoic acid] | seedling growth inhibition occurred | No | Yes | Yes | Yes | No |  |  |  |  |  |  |  |
| N=C(N)NCCC[C@H](N)C(=O)O [arginine] |  |  |  |  |  |  |  | lack evidence of chlorophylls | repression of shoots and roots | all chloroplasts were colonized by actively motile bacteria | longer root hairs | high levels of hydrogen peroxide around roots | higher presence of superoxide |
| CC(=O)O [Acetic, Acetic acid] | seedling growth inhibition occurred | No | No | No | Yes | No |  |  |  |  |  |  |  |

Source: patent US20230067609A1, “ENDOPHYTIC MICROBES FOR GROWTH PROMOTION OF CROP PLANTS AND SUPPRESSION OF AGGRESSIVE INVASIVE PLANT SPECIES, BIOHERBICIDES COMPRISING THE SAME AND METHODS OF USE THEREOF” (priority 2018, published 2023)
